Assay results published in ChEMBL document CHEMBL5678816, “A Next-Generation TRK Kinase Inhibitor Overcomes Acquired Resistance to Prior TRK Kinase Inhibition in Patients with TRK Fusion-Positive Solid Tumors” (Cancer Discov, 2017).
Calls of active or inactive are those of the source. The rule behind the calls is not given here.

How the values were obtained:
[1] = Oral bioavailability in dog at 10 mg/kg administered as 0.5% carboxymethylcellulose 0.02% sodium dodecyl sulfate formulation by LC-MS analysis; format: ADME, organism-based, Canis lupus familiaris; details: in vivo
[2] = target: Aurora kinase A (Homo sapiens) (UniProt O14965); experiment: Inhibition of AURKA (unknown origin) at 1 uM in presence of ATP relative to control; values are per cent of control
Sequence of Aurora kinase A (Homo sapiens) (O14965 whole entry): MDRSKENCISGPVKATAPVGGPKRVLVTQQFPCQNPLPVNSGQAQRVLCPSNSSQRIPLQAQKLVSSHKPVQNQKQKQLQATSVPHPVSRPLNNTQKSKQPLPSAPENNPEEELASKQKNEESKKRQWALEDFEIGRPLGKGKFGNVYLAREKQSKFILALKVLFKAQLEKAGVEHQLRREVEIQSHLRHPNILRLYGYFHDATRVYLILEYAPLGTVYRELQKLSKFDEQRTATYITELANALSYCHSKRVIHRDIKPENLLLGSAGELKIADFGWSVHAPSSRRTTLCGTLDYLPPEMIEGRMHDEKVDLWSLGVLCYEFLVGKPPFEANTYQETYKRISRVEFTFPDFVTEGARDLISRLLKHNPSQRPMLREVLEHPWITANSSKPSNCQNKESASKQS

[3] = tested on: KATO III stomach cancer cell line; experiment: Inhibition of cell proliferation in human KATO III stomach cancer cell line upto 10 umol/L incubated for 72 hrs by DAPI staining based analysis; format: functional; details: dose <= 10.0 µmol/L
[4] = target: Mitogen-activated protein kinase kinase kinase kinase 2 (Homo sapiens) (UniProt Q12851); experiment: Inhibition of MAP4K2 (unknown origin) at 1 uM in presence of ATP relative to control; values are per cent of control
[5] = target: Eukaryotic elongation factor 2 kinase (Homo sapiens) (UniProt O00418); experiment: Inhibition of eEF-2K (unknown origin) at 1 uM in presence of ATP relative to control; values are per cent of control
Sequence of Eukaryotic elongation factor 2 kinase (Homo sapiens) (O00418 whole entry): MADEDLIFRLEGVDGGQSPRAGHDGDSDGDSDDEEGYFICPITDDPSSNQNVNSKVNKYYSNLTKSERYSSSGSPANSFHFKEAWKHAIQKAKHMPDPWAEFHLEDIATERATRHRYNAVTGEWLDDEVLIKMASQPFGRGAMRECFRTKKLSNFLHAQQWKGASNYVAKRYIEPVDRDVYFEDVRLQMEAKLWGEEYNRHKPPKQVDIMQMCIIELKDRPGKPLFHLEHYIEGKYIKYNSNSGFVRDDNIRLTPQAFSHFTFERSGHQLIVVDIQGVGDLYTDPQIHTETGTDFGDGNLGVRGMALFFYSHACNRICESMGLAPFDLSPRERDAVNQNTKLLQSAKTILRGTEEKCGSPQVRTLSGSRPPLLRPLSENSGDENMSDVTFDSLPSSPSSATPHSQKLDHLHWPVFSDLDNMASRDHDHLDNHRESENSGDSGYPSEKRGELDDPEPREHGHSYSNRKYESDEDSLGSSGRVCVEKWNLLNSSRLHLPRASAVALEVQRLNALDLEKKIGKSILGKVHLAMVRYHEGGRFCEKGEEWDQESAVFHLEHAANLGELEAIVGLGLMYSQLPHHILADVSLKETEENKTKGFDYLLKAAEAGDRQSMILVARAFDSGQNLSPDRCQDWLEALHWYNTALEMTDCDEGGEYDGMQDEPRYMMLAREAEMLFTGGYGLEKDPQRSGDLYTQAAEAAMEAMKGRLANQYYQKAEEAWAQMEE

[6] = target: Protein kinase C alpha type (Homo sapiens) (UniProt P17252); experiment: Inhibition of PKCalpha (unknown origin) at 1 uM in presence of ATP relative to control; values are per cent of control
SK-LMS-1 = experiment: Inhibition of cell proliferation in human SK-LMS-1 cells upto 10 umol/L incubated for 72 hrs by DAPI staining based analysis; format: functional; details: dose <= 10.0 µmol/L
[7] = target: Serine/threonine-protein kinase D1 (Homo sapiens) (UniProt Q15139); experiment: Inhibition of PKD1 (unknown origin) at 1 uM in presence of ATP relative to control; values are per cent of control
Sequence of Serine/threonine-protein kinase D1 (Homo sapiens) (Q15139 whole entry): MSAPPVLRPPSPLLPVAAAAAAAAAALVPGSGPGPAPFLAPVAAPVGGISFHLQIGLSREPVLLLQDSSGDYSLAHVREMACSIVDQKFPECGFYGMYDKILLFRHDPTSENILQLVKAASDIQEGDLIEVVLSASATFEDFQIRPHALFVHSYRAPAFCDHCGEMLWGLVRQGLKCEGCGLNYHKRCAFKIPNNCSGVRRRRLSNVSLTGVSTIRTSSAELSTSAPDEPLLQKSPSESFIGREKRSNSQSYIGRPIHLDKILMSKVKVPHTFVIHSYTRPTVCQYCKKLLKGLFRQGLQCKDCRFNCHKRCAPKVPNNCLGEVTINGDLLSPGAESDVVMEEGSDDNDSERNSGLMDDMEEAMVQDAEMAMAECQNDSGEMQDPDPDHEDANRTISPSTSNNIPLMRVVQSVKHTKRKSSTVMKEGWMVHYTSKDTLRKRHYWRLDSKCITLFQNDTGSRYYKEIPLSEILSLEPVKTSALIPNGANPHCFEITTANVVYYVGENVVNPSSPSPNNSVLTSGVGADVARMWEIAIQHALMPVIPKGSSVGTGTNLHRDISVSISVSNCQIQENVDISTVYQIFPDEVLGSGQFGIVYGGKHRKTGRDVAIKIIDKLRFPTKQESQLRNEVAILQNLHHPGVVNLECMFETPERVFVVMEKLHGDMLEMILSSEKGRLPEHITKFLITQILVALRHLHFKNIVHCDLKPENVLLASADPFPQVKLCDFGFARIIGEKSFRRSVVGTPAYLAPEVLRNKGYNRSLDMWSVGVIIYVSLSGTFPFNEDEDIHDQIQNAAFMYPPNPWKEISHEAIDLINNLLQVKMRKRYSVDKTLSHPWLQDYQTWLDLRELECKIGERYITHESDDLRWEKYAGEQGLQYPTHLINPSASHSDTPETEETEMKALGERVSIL

[8] = target: BDNF/NT-3 growth factors receptor (Homo sapiens) (UniProt Q16620); experiment: Inhibition of TrkB (unknown origin) at 1 uM in presence of ATP relative to control; values are per cent of control
[9] = target: Serine/threonine-protein kinase Sgk2 (Homo sapiens) (UniProt Q9HBY8); experiment: Inhibition of SGK2 (unknown origin) at 1 uM in presence of ATP relative to control; values are per cent of control
[10] = target: Misshapen-like kinase 1 (Homo sapiens) (UniProt Q8N4C8); experiment: Inhibition of MINK (unknown origin) at 1 uM in presence of ATP relative to control; values are per cent of control
MIA PaCa-2 = experiment: Inhibition of cell proliferation in human MIA PaCa-2 cells upto 10 umol/L incubated for 72 hrs by DAPI staining based analysis; format: functional; details: dose <= 10.0 µmol/L
DU-145 = experiment: Inhibition of cell proliferation in human DU-145 cells upto 10 umol/L incubated for 72 hrs by DAPI staining based analysis; format: functional; details: dose <= 10.0 µmol/L
CAMA-1 = experiment: Inhibition of cell proliferation in human CAMA-1 cells upto 10 umol/L incubated for 72 hrs by DAPI staining based analysis; format: functional; details: dose <= 10.0 µmol/L
[11] = target: Glycogen synthase kinase-3 alpha (Homo sapiens) (UniProt P49840); experiment: Inhibition of GSK3alpha (unknown origin) at 1 uM in presence of ATP relative to control; values are per cent of control
[12] = target: Serine/threonine-protein kinase 4 (Homo sapiens) (UniProt Q13043); experiment: Inhibition of MST1 (unknown origin) at 1 uM in presence of ATP relative to control; values are per cent of control
[13] = target: Casein kinase I isoform delta (Homo sapiens) (UniProt P48730); experiment: Inhibition of CK1delta (unknown origin) at 1 uM in presence of ATP relative to control; values are per cent of control
Sequence of Casein kinase I isoform delta (Homo sapiens) (P48730 whole entry, looked up, canonical isoform): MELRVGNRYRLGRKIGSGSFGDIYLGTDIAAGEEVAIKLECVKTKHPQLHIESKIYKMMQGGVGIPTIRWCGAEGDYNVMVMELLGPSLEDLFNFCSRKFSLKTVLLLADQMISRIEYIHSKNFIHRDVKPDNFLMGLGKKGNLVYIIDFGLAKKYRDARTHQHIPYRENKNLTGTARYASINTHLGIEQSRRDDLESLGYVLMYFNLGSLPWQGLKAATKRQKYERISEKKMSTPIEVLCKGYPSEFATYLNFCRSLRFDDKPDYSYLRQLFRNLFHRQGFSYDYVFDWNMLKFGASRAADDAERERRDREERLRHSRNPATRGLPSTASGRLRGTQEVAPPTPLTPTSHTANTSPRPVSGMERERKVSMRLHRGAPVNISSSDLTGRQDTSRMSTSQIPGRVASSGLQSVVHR

[14] = target: RAC-alpha serine/threonine-protein kinase (Homo sapiens) (UniProt P31749); experiment: Inhibition of AKT1 (unknown origin) at 1 uM in presence of ATP relative to control; values are per cent of control
Sequence of RAC-alpha serine/threonine-protein kinase (Homo sapiens) (P31749 whole entry): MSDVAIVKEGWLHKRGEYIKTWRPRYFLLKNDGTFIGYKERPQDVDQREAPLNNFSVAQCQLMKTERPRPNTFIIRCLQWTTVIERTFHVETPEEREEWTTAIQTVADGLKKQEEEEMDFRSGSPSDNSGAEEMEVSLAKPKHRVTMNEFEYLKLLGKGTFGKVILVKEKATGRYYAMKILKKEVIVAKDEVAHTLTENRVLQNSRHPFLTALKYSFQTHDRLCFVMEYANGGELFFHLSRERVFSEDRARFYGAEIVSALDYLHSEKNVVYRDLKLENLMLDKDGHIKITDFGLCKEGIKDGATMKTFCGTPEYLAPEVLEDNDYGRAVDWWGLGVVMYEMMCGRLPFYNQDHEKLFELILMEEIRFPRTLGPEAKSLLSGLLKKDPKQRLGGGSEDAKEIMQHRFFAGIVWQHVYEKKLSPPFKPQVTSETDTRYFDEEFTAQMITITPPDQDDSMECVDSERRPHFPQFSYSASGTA

[15] = target: Calcium/calmodulin-dependent protein kinase type 1 (Homo sapiens) (UniProt Q14012); experiment: Inhibition of CAMK1 (unknown origin) at 1 uM in presence of ATP relative to control; values are per cent of control
Sequence of Calcium/calmodulin-dependent protein kinase type 1 (Homo sapiens) (Q14012 whole entry, looked up): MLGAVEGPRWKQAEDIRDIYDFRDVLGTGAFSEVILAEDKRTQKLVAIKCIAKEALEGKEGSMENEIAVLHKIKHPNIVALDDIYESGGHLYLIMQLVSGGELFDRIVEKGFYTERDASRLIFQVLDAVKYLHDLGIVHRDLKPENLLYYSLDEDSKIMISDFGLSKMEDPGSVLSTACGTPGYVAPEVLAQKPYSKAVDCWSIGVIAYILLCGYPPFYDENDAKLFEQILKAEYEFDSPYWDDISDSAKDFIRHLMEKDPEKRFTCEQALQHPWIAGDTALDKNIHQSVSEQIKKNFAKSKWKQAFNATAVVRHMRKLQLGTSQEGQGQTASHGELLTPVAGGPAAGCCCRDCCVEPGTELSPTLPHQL

[16] = target: Macrophage colony-stimulating factor 1 receptor (Homo sapiens) (UniProt P07333); experiment: Inhibition of Fms (unknown origin) at 1 uM in presence of ATP relative to control; values are per cent of control
Sequence of Macrophage colony-stimulating factor 1 receptor (Homo sapiens) (P07333 whole entry): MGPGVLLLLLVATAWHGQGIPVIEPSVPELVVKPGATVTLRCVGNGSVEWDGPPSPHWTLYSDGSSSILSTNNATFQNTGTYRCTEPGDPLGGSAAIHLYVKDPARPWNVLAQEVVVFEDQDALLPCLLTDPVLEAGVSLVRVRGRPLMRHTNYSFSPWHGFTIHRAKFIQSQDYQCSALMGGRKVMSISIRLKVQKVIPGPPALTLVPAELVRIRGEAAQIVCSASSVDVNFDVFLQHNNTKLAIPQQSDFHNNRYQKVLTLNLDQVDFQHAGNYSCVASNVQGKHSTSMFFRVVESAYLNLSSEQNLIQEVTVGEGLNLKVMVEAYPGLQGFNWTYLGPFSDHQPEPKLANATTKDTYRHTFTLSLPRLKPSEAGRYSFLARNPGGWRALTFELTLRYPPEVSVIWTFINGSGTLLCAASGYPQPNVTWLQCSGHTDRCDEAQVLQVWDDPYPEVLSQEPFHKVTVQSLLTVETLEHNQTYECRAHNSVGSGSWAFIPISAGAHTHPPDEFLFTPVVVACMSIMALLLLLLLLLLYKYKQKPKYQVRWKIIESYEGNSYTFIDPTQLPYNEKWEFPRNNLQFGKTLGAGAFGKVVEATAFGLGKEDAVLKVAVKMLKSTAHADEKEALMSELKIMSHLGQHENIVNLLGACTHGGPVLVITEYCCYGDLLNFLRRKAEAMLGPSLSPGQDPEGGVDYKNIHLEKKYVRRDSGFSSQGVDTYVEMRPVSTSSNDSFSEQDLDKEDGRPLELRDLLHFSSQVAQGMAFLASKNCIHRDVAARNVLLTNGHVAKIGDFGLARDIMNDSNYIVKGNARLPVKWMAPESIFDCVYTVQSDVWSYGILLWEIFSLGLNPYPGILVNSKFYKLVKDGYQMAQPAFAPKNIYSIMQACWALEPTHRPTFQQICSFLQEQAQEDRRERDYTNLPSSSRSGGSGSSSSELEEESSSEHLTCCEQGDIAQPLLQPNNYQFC

647-V = experiment: Inhibition of cell proliferation in human 647-V cells upto 10 umol/L incubated for 72 hrs by DAPI staining based analysis; format: functional; details: dose <= 10.0 µmol/L
BHT-101 = experiment: Inhibition of cell proliferation in human BHT-101 cells upto 10 umol/L incubated for 72 hrs by DAPI staining based analysis; format: functional; details: dose <= 10.0 µmol/L
[17] = Clearance in monkey at 1 mg/kg, iv administered as 20% hydroxypropyl-beta-cyclodextrin formulation by LC-MS analysis; format: ADME, organism-based, Macaca mulatta; details: rhesus monkey, in vivo
[18] = target: Serine/threonine-protein kinase MARK2 (Homo sapiens) (UniProt Q7KZI7); experiment: Inhibition of MARK2 (unknown origin) at 1 uM in presence of ATP relative to control; values are per cent of control
A101D = experiment: Inhibition of cell proliferation in human A101D cells upto 10 umol/L incubated for 72 hrs by DAPI staining based analysis; format: functional; details: dose <= 10.0 µmol/L
[19] = target: Death-associated protein kinase 3 (Homo sapiens) (UniProt O43293); experiment: Inhibition of DAPK3 (unknown origin) at 1 uM in presence of ATP relative to control; values are per cent of control
CGTH-W-1 = experiment: Inhibition of cell proliferation in human CGTH-W-1 cells upto 10 umol/L incubated for 72 hrs by DAPI staining based analysis; format: functional; details: dose <= 10.0 µmol/L
[20] = target: Protein-tyrosine kinase 6 (Homo sapiens) (UniProt Q13882); experiment: Inhibition of PTK6 (unknown origin) at 1 uM in presence of ATP relative to control; values are per cent of control
Sequence of Protein-tyrosine kinase 6 (Homo sapiens) (Q13882 whole entry, looked up, the tested form may be a part): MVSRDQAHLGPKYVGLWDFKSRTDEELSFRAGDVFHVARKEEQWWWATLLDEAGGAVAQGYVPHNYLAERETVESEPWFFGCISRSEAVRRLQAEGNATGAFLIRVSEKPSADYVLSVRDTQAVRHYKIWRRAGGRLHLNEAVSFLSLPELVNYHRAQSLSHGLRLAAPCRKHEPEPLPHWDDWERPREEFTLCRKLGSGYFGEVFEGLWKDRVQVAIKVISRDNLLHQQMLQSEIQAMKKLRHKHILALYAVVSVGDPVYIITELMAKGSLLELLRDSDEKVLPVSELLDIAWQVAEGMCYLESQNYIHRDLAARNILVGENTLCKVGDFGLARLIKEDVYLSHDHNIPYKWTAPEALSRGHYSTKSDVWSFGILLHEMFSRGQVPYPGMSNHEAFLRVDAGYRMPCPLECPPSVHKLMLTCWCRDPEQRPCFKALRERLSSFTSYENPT

[21] = Inhibition of cell proliferation in ETV6-NTRK3 fusion positive human MO-91 cells incubated for 72 hrs by DAPI staining based analysis; format: functional; details: MO-91, 72 h
[22] = target: FKBP12A/mTOR (Homo sapiens) (UniProt P62942+P42345); experiment: Inhibition of mTOR/FKBP12 (unknown origin) at 1 uM in presence of ATP relative to control; values are per cent of control
Sequence of FKBP12A/mTOR (Homo sapiens) (P62942 2-108 limits assumed, other chains not shown): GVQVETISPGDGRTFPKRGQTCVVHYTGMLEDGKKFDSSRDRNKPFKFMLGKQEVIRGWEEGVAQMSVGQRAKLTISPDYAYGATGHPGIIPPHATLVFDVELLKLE

[23] = Oral bioavailability in monkey at 10 mg/kg administered as 20% hydroxypropyl-beta-cyclodextrin formulation by LC-MS analysis; format: ADME, organism-based, Macaca mulatta; details: rhesus monkey, in vivo

With `C[C@@H]1CCc2ncc(F)cc2[C@H]2CCCN2c2ccn3ncc(c3n2)C(=O)N1` [SELITRECTINIB] the bioavailability [1] was 42%, the residual activity [2] was 97% and the inhibition [3] was “inactive”. It also gave a residual activity [4] of 102%, a residual activity [5] of 118% and a residual activity [6] of 107%. The inhibition (SK-LMS-1) was “inactive”, the residual activity [7] was 106% and the residual activity [8] was 0%. The residual activity [9] was 136%, the residual activity [10] was 99.5% and the inhibition (MIA PaCa-2) was “inactive”. For the same compound, the inhibition (DU-145) was “inactive”, the inhibition (CAMA-1) was “inactive” and the residual activity [11] was 117%. It also gave a residual activity [12] of 95.5%, a residual activity [13] of 110% and a residual activity [14] of 120%. For the same compound, the residual activity [15] was 107%, the residual activity [16] was 87.5% and the inhibition (647-V) was “inactive”. For the same compound, the inhibition (BHT-101) was “inactive”, the clearance [17] was 23.3 mL/min/kg and the residual activity [18] was 107%. For the same compound, the inhibition (A101D) was “inactive”, the residual activity [19] was 120% and the inhibition (CGTH-W-1) was “inactive”. For the same compound, the residual activity [20] was 98.5%, the IC50 [21] was at most 5 nM and the residual activity [22] was 102%. For the same compound, the bioavailability [23] was 2%.
